{"source": "patent US6159940A", "about": "“Method for modulating hemopoiesis” (Immunotech Developments Inc., priority 1999, dated 2000)", "tested_on": "lymphocyte subpopulations in peripheral blood", "experiment": "Clinical study: hemogram and immune phenotyping in patients with chronic lymphoid leukosis", "type": "in vivo", "from_the_text": "The study was continued in groups of patients with immune cytopenias, multiple myeloma, chronic lymphoid leukosis, lymphocytic lymphomas, lymphosarcomas (55 patients). Special attention was paid to the group of patients with P-cellular lymphoid leukosis. The peculiarity of the leukemic B-lymphocyte clone and its relatively vast representation in the peripheral blood of patients with a pronounced secondary immune deficiency makes B-cellular chronic Lymphoid leukosis a unique model for clinical studies of the effect of an immunomodulator.\nImmune phenotyping is the most reliable method to determine the changes of ratios of immunocompetent cells in the peripheral blood and lymphocyte-containing organs. The method allows detection of subpopulations by the presence of cellular differentiating antigen structures on lymphocyte surface. For more trustworthy results, some patients were examined using a flow-type cytoflourimeter and monoclonal antibodies. Taking into account the contingent of the patients, the main surface structures to be examined were the following: CD45++CD14-, CD45+CD14-, CD45+CD14+, CD3+CD19-, CD3-CD19+, CD4+CD8-, CD4-CD8+, CD3+HLA- DR+, CD3+CD16,56+, CD34+, CDS+.\nThe dynamics of CD4+CD8- and CD4-CD8+ (T-helpers and T-suppressers) and the dynamics of other necessary CD-markers were determined in the course of treatment with H-Ile-Glu-Trp-OH. A special attention was paid to CD45++CD14- and CD45+CD14 as they characterize the proportion between normal and leukemic lymphocytes in chronic lymphoid leukosis and illustrate the influence of the immunoactive peptide on the proportion. These peculiarities connected with the characteristics of the disease allow investigation of the molecular mechanism of its genesis. In the case of an immune cytopenia most important are the quantitative ratios of CD45++CD14- and CD45+CD14- to CD4-CD8+, their reliable values can be obtained with the help of a cytofluorimeter.\nOne ml daily, intranasally, once or twice in divided doses, for 5 days. The course was repeated after a 3-week interval. To those patients who received a cytostatic mono- or polychemotherapy, H-Ile-Glu-Trp-OH was administered from the first day of the break in the cytostatic treatment.", "key": {"[1]": {"conditions": "Patient 0., * % of cells in mixed population of CD45++CD14- and CD45+CD14-"}, "[2]": {"conditions": "Patient S., * % of cells in the CD45+CD14- subpopulation"}}, "data": [{"substance": "H-Ile-Glu-Trp-OH", "values": [{"measurement": "Absolute Count after treatment, CD45++CD14- lymphocytes", "setting": "Patient 0.", "result": 5.8, "unit": "bln/l"}, {"measurement": "number of cells with CD45++CD14- markers after treatment", "setting": "Patient 0.", "result": "grew three times"}, {"measurement": "Lymphocytes absolute after treatment course", "setting": "Patient 0. (before: 11.2)", "result": 15.4, "unit": "blnd"}, {"measurement": "leukocytes after treatment course", "setting": "Patient 0. (before: 17.3)", "result": 20.8, "unit": "blnd"}, {"measurement": "Lymphocytes after treatment course", "setting": "Patient 0. (before: 65)", "result": 74, "unit": "%"}, {"measurement": "% of Cells after H-Ile-Glu-Trp-OH Treatment, CD4+CD8- T-helpers", "setting": "[1]", "result": 8.2, "unit": "%"}, {"measurement": "% of Cells after H-Ile-Glu-Trp-OH Treatment, CD4-CD8+ T-suppressers", "setting": "[1]", "result": 8.1, "unit": "%"}, {"measurement": "CD4+/CD8+ ratio after H-Ile-Glu-Trp-OH Treatment", "setting": "Patient 0., * mixed population of CD45++CD14- and CD45+CD14-", "result": 1.0}, {"measurement": "% of Cells after H-Ile-Glu-Trp-OH Treatment, CD45++CD14- lymphocytes", "setting": "Patient B.", "result": 9.5, "unit": "%"}, {"measurement": "% of Cells after H-Ile-Glu-Trp-OH Treatment, CD45+CD14+ monocytes", "setting": "Patient B.", "result": 2.1, "unit": "%"}, {"measurement": "% of Cells after H-Ile-Glu-Trp-OH Treatment, CD45+CD14- granulocytes", "setting": "Patient B.", "result": 86.4, "unit": "%"}, {"measurement": "Absolute Count after treatment, CD45++CD14- lymphocytes", "setting": "Patient B.", "result": 2.52, "unit": "bln/l"}, {"measurement": "Lymphocytes absolute after treatment", "setting": "Patient B. (before: 18.7)", "result": 21.8, "unit": "bln/1"}, {"measurement": "leukocytes after treatment", "setting": "Patient B. (before: 23,0)", "result": 26.6, "unit": "bin/1"}, {"measurement": "Lymphocytes after treatment", "setting": "Patient B. (before: 85)", "result": 82, "unit": "%"}, {"measurement": "% of Cells after H-Ile-Glu-Trp-OH Treatment, CD3+CD19- T-lymphocytes", "setting": "Patient B., marked *", "result": 10.6, "unit": "%"}, {"measurement": "% of Cells after H-Ile-Glu-Trp-OH Treatment, CD3+HLA-DR+ activated T-lymphoc.", "setting": "Patient B., marked *", "result": 1.31, "unit": "%"}, {"measurement": "% of Cells after H-Ile-Glu-Trp-OH Treatment, CD3-CD19+ B-lymphocytes", "setting": "Patient B., marked *", "result": 85.3, "unit": "%"}, {"measurement": "% of Cells after H-Ile-Glu-Trp-OH Treatment, CD4+CD8- T-helpers", "setting": "Patient B., marked *", "result": 6.4, "unit": "%"}, {"measurement": "% of Cells after H-Ile-Glu-Trp-OH Treatment, CD4-CD8+ T-suppressers", "setting": "Patient B., marked *", "result": 3.8, "unit": "%"}, {"measurement": "CD4+/CD8+ ratio after H-Ile-Glu-Trp-OH Treatment", "setting": "Patient B., marked *", "result": 1.7}, {"measurement": "% of Cells after H-Ile-Glu-Trp-OH Treatment, CD3+CD19- T-lymphocytes", "setting": "Patient M.", "result": 35.6, "unit": "%"}, {"measurement": "% of Cells after H-Ile-Glu-Trp-OH Treatment, CD3-CD19+ B-lymphocytes", "setting": "Patient M.", "result": 61.2, "unit": "%"}, {"measurement": "% of Cells after H-Ile-Glu-Trp-OH Treatment, CD4+CD8- T-helpers", "setting": "Patient M.", "result": 11.6, "unit": "%"}, {"measurement": "% of Cells after H-Ile-Glu-Trp-OH Treatment, CD4-CD8+ T-suppressers", "setting": "Patient M.", "result": 30.6, "unit": "%"}, {"measurement": "% of Cells after H-Ile-Glu-Trp-OH Treatment, CD45++CD14- lymphocytes", "setting": "Patient M.", "result": 43.2, "unit": "%"}, {"measurement": "% of Cells after H-Ile-Glu-Trp-OH Treatment, CD45+CD14+ monocytes", "setting": "Patient M.", "result": 4.5, "unit": "%"}, {"measurement": "% of Cells after H-Ile-Glu-Trp-OH Treatment, CD45+CD14- granulocytes", "setting": "Patient M.", "result": 47.7, "unit": "%"}, {"measurement": "Absolute Count after treatment, CD45++CD14- lymphocytes", "setting": "Patient M.", "result": 3.715, "unit": "bln/l"}, {"measurement": "CD4+/CD8+ ratio after H-Ile-Glu-Trp-OH Treatment", "setting": "Patient M.", "result": 0.4}, {"measurement": "Lymphocytes absolute after treatment course", "setting": "Patient M. (before: 3.24)", "result": 3.62, "unit": "bln/1"}, {"measurement": "leukocytes after treatment course", "setting": "Patient M. (before: 7.9)", "result": 8.6, "unit": "blnA"}, {"measurement": "Lymphocytes after treatment course", "setting": "Patient M. (before: 41)", "result": 42, "unit": "%"}, {"measurement": "% of Cells after H-Ile-Glu-Trp-OH Treatment, CD3+CD19- T-lymphocytes", "setting": "Patient S.", "result": 52.0, "unit": "%"}, {"measurement": "% of Cells after H-Ile-Glu-Trp-OH Treatment, CD3+HLA-DR+ activated T-lymphoc.", "setting": "Patient S.", "result": 16.0, "unit": "%"}, {"measurement": "% of Cells after H-Ile-Glu-Trp-OH Treatment, CD3-CD19+ B-lymphocytes", "setting": "Patient S.", "result": 40.0, "unit": "%"}, {"measurement": "% of Cells after H-Ile-Glu-Trp-OH Treatment, CD4+CD8- T-helpers", "setting": "Patient S.", "result": 27.1, "unit": "%"}, {"measurement": "% of Cells after H-Ile-Glu-Trp-OH Treatment, CD4-CD8+ T-suppressers", "setting": "Patient S.", "result": 36.5, "unit": "%"}, {"measurement": "% of Cells after H-Ile-Glu-Trp-OH Treatment, CD45++CD14- lymphocytes", "setting": "Patient S.", "result": 13.5, "unit": "%"}, {"measurement": "% of Cells after H-Ile-Glu-Trp-OH Treatment, CD45+CD14+ monocytes", "setting": "Patient S.", "result": 0.8, "unit": "%"}, {"measurement": "% of Cells after H-Ile-Glu-Trp-OH Treatment, CD45+CD14- granulocytes", "setting": "Patient S.", "result": 78.0, "unit": "%"}, {"measurement": "Absolute Count after treatment, CD45++CD14- lymphocytes", "setting": "Patient S.", "result": 9.112, "unit": "bln/l"}, {"measurement": "CD4+/CD8+ ratio after H-Ile-Glu-Trp-OH Treatment", "setting": "Patient S.", "result": 0.7}, {"measurement": "Lymphocytes absolute after treatment course", "setting": "Patient S. (before: 48.04)", "result": 58.06, "unit": "bln/1"}, {"measurement": "leukocytes after treatment course", "setting": "Patient S. (before: 57.2)", "result": 67.5, "unit": "bin/1"}, {"measurement": "Lymphocytes after treatment course", "setting": "Patient S. (before: 84)", "result": 86, "unit": "%"}, {"measurement": "count of lymphocytes belonging to the population of conventionally normal lymphocytes", "setting": "Patient S., after the treatment", "result": "doubled"}, {"measurement": "% of Cells after H-Ile-Glu-Trp-OH Treatment, CD3+CD19- T-lymphocytes", "setting": "[2]", "result": 2.6, "unit": "%"}, {"measurement": "% of Cells after H-Ile-Glu-Trp-OH Treatment, CD3+HLA-DR+ activated T-lymphoc.", "setting": "[2]", "result": 0.5, "unit": "%"}, {"measurement": "% of Cells after H-Ile-Glu-Trp-OH Treatment, CD3-CD19+ B-lymphocytes", "setting": "[2]", "result": 96.9, "unit": "%"}, {"measurement": "% of Cells after H-Ile-Glu-Trp-OH Treatment, CD4+CD8- T-helpers", "setting": "[2]", "result": 1.6, "unit": "%"}, {"measurement": "% of Cells after H-Ile-Glu-Trp-OH Treatment, CD4-CD8+ T-suppressers", "setting": "[2]", "result": 1.9, "unit": "%"}, {"measurement": "CD4+/CD8+ ratio after H-Ile-Glu-Trp-OH Treatment", "setting": "Patient S., * in the CD45+CD14- subpopulation", "result": 0.5}]}]}
